From patent publication US20060069132A1, “Azolecarboxamide herbicides” (priority 2004, published 2006)

Columns and labels:
kochia = experiment: Test E pre-/postemergence herbicide test; type: in vivo, Kochia scoparia
Text: (§1) Seeds of plant species selected from bipinnate beggarticks (Bidens bipinnata L.), hairy beggarticks (Bidens radiata Thuill.), bermudagrass (Cynodon dactylon (L.) Pers.), Surinam grass (Urochloa decumbens (Staph) R. D. Webster, previously named Brachiaria decumbens Stapf), large crabgrass (Digitaria sanguinalis (L.) Scop.), green foxtail (Setaria viridis (L.) P. Beauv.), goosegrass (Eleusine indica (L.) Gaertn.), johnsongrass (Sorghum halepense (L.) Pers.), kochia (Kochia scoparia (L.) Schrad.), pitted morningglory (Ipomoea lacunosa L.), purple nutsedge (Cyperus rotundus L.), common ragweed (Ambrosia elatior L.), mustard (Brassica nigra (L.) W. D. J. Koch), guineagrass (Panicum maximum Jacq.), dallisgrass (Paspalum dilatatum Poir.), barnyardgrass (Echinochloa crus-galli (L). P. Beauv.), southern sandbur (Cenchrus echinatus L.), common sowthistle (Sonchus oleraceous L.), prickly sida (Sida spinosa L.), Italian ryegrass (Lolium multiflorum Lam.), common purslane (Portulaca oleracea L.), broadleaf signalgrass (Brachiaria platyphylla (Griseb.) Nash), common groundsel (Senecio vulgaris L.), common chickweed (Stellaria media (L.) Vill/Cyr.), tropical spiderwort (Commelina benghalensis L.), annual bluegrass (Poa annua L.), downy bromegrass (Bromus tectorum L.), itchgrass (Rottboellia cochinchinensis (L.) L.f.), quackgrass (Elytrigia repens (L.) Nevski), Canada horseweed (Erigeron Canadensis L.), field bindweed (Convolvulus arvensis L.), spotted spurge (Euphorbia maculata L.), common mallow (Malva sylvestris (=s silvestris) L.), and Russian thistle (Salsola kali L. ssp. Ruthenica (Iljin) Soo) were planted and treated preemergence with test chemicals formulated in a non-phytotoxic solvent mixture which included a surfactant.
(§2) At the same time, plants selected from these weed species were treated with postemergence applications of some of the test chemicals formulated in the same manner. Plants ranged in height from 2 to 18 cm (1- to 4-leaf stage) for postemergence treatments. Treated plants and controls were maintained in a greenhouse for 12 to 14 days, after which time all species were compared to controls and visually evaluated. Plant response ratings, summarized in Table E, are based on a scale of 0 to 100 where 0 is no effect and 100 is complete control. A dash (-) response means no test result.

ducksalad = experiment: Test D flooded paddy test; type: in vivo, Heteranthera limosa; conditions: 21 days, scale 0 to 100
Text: (§3) Three plastic pots (ca. 16-cm diameter) per rate were partially filled with sterilized Tama silt loam soil comprising a 35:50:15 ratio of sand, silt and clay and 2.6% organic matter. Separate plantings for each of the three pots were as follows. Seeds from the U.S. of ducksalad (Heteranthera limosa (Sw.) Willd.), smallflower umbrella sedge (Cyperus difformis L.) and purple redstem (Ammannia coccinea Rottb.), were planted into one 16-cm pot for each rate. Seeds from the U.S. of rice flatsedge (Cyperus iria L.), bearded sprangletop (Leptochloa fascicularis (Lam.) Gray), one stand of 9 or 10 water seeded rice seedlings (Oryza sativa L. cv. ‘Japonica—M202’), and one stand of 6 transplanted rice seedlings (Oryza sativa L. cv. ‘Japonica—M202’) were planted into one 16-cm pot for each rate. Seeds from the U.S. of barnyardgrass (Echinochloa crus-galli (L.) Beauv.), late watergrass (Echinochloa oryzicola Vasinger), early watergrass (Echinochloa oryzoides (Ard.) Fritsch) and junglerice (Echinochloa colona (L.) Link) were planted into one 16-cm pot for each rate. Plantings were sequential so that crop and weed species were at the 2.0 to 2.5-leaf stage at time of treatment.
(§4) Potted plants were grown in a greenhouse with day/night temperature settings of 29.5/26.7° C., and supplemental balanced lighting was provided to maintain a 16-hour photoperiod. Test pots were maintained in the greenhouse until test completion.
(§5) At time of treatment, test pots were flooded to 3 cm above the soil surface, treated by application of test compounds directly to the paddy water, and then maintained at that water depth for the duration of the test. Effects of treatments on rice and weeds were visually evaluated by comparison to untreated controls after 21 days. Plant response ratings are reported on a 0 to 100 scale; where 0 is no effect and 100 is complete control. A dash (-) response means no test result.

[1] = tested on: smallflower umbrella sedge; experiment: Test D flooded paddy test; type: in vivo, Cyperus difformis; conditions: 21 days, scale 0 to 100
Text: as §3, §4, §5

purple redstem = experiment: Test D flooded paddy test; type: in vivo, Ammannia coccinea; conditions: 21 days, scale 0 to 100
Text: as §3, §4, §5

[2] = tested on: transplanted rice seedlings; experiment: Test D flooded paddy test; type: in vivo, Oryza sativa; conditions: 21 days, scale 0 to 100
Text: as §3, §4, §5

[3] = tested on: water seeded rice seedlings; experiment: Test D flooded paddy test; type: in vivo, Oryza sativa; conditions: 21 days, scale 0 to 100
Text: as §3, §4, §5

barnyardgrass = experiment: Test D flooded paddy test; type: in vivo, Echinochloa crus-galli; conditions: 21 days, scale 0 to 100
Text: as §3, §4, §5

late watergrass = experiment: Test D flooded paddy test; type: in vivo, Echinochloa oryzicola; conditions: 21 days, scale 0 to 100
Text: as §3, §4, §5

early watergrass = experiment: Test D flooded paddy test; type: in vivo, Echinochloa oryzoides; conditions: 21 days, scale 0 to 100
Text: as §3, §4, §5

junglerice = experiment: Test D flooded paddy test; type: in vivo, Echinochloa colona; conditions: 21 days, scale 0 to 100
Text: as §3, §4, §5

bipinnate beggarticks = experiment: Test E pre-/postemergence herbicide test; type: in vivo, Bidens bipinnata; conditions: Preemergence
Text: as §1, §2

[4] = Preemergence, 62 g ai/ha, scale 0 to 100
[5] = Preemergence, 250 g ai/ha, scale 0 (no effect) to 100 (complete control)
[6] = Preemergence, 500 g ai/ha, scale 0 (no effect) to 100 (complete control)
[7] = 250 g ai/ha, scale 0 (no effect) to 100 (complete control)
[8] = 500 g ai/ha, scale 0 (no effect) to 100 (complete control)

CCn1nc(C(C)(C)C)cc1C(=O)Nc1cc(C(=O)N(C)C)ccc1F [Compound 6, N-[5-[(dimethylamino)carbonyl]-2-fluorophenyl]-3-(1,1-dimethylethyl)-1-ethyl-1H-pyrazole-5-carboxamide]
Plant response rating, Kochia (kochia; Postemergence, 500 g ai/ha, scale 0 to 100): 100 | Plant response rating, Kochia (kochia; Postemergence, 250 g ai/ha, scale 0 to 100): 100 | Plant response rating, Kochia (kochia; [4]): 100 | Plant response rating, Kochia (kochia; Preemergence, 125 g ai/ha, scale 0 (no effect) to 100 (complete control)): 100 | Plant response rating, Kochia (kochia; [5]): 100 | Plant response rating, Kochia (kochia; [6]): 100 | Plant response rating, Kochia (kochia; postemergence, 125 g ai/ha, scale 0 to 100): 100 | Plant response rating, Kochia (kochia; postemergence, 62 g ai/ha, scale 0 to 100): 100

CCNC(=O)c1ccnc(NC(=O)c2cc(C(C)(C)C)nn2CC)c1 [Compound 152]
Plant response rating, Ducksalad (ducksalad; 8 g ai/ha): 0 | Plant response rating, Ducksalad (ducksalad; 16 g ai/ha): 70 | Plant response rating, Ducksalad (ducksalad; 32 g ai/ha): 75 | Plant response rating, Ducksalad (ducksalad; 64 g ai/ha): 80 | Plant response rating, Ducksalad (ducksalad; 125 g ai/ha): 90 | Plant response rating, Sedge, Umbrella ([1]; 8 g ai/ha): 0 | Plant response rating, Sedge, Umbrella ([1]; 16 g ai/ha): 70 | Plant response rating, Sedge, Umbrella ([1]; 32 g ai/ha): 75 | Plant response rating, Sedge, Umbrella ([1]; 64 g ai/ha): 85 | Plant response rating, Sedge, Umbrella ([1]; 125 g ai/ha): 95 | Plant response rating, Redstem (purple redstem; 8 g ai/ha): 0 | Plant response rating, Redstem (purple redstem; 16 g ai/ha): 0 | Plant response rating, Redstem (purple redstem; 32 g ai/ha): 60 | Plant response rating, Redstem (purple redstem; 64 g ai/ha): 85 | Plant response rating, Redstem (purple redstem; 125 g ai/ha): 90 | Plant response rating, Rice, Transplanted ([2]; 8 g ai/ha): 0 | Plant response rating, Rice, Transplanted ([2]; 16 g ai/ha): 20 | Plant response rating, Rice, Transplanted ([2]; 32 g ai/ha): 25 | Plant response rating, Rice, Transplanted ([2]; 64 g ai/ha): 40 | Plant response rating, Rice, Transplanted ([2]; 125 g ai/ha): 45 | Plant response rating, Rice, Water Seeded ([3]; 8 g ai/ha): 0 | Plant response rating, Rice, Water Seeded ([3]; 16 g ai/ha): 20 | Plant response rating, Rice, Water Seeded ([3]; 32 g ai/ha): 30 | Plant response rating, Rice, Water Seeded ([3]; 64 g ai/ha): 40 | Plant response rating, Rice, Water Seeded ([3]; 125 g ai/ha): 45 | Plant response rating, Barnyardgrass (barnyardgrass; 8 g ai/ha): 0 | Plant response rating, Barnyardgrass (barnyardgrass; 16 g ai/ha): 0 | Plant response rating, Barnyardgrass (barnyardgrass; 32 g ai/ha): 0 | Plant response rating, Barnyardgrass (barnyardgrass; 64 g ai/ha): 10 | Plant response rating, Barnyardgrass (barnyardgrass; 125 g ai/ha): 35 | Plant response rating, Watergrass, Late (late watergrass; 8 g ai/ha): 0 | Plant response rating, Watergrass, Late (late watergrass; 16 g ai/ha): 0 | Plant response rating, Watergrass, Late (late watergrass; 32 g ai/ha): 15 | Plant response rating, Watergrass, Late (late watergrass; 64 g ai/ha): 20 | Plant response rating, Watergrass, Late (late watergrass; 125 g ai/ha): 40 | Plant response rating, Watergrass, Early (early watergrass; 8 g ai/ha): 0 | Plant response rating, Watergrass, Early (early watergrass; 16 g ai/ha): 0 | Plant response rating, Watergrass, Early (early watergrass; 32 g ai/ha): 0 | Plant response rating, Watergrass, Early (early watergrass; 64 g ai/ha): 0 | Plant response rating, Watergrass, Early (early watergrass; 125 g ai/ha): 45 | Plant response rating, Junglerice (junglerice; 8 g ai/ha): 0 | Plant response rating, Junglerice (junglerice; 16 g ai/ha): 0 | Plant response rating, Junglerice (junglerice; 32 g ai/ha): 0 | Plant response rating, Junglerice (junglerice; 64 g ai/ha): 0 | Plant response rating, Junglerice (junglerice; 125 g ai/ha): 30 | Plant response rating, Kochia (kochia; [4]): 0 | Plant response rating, Kochia (kochia; Preemergence, 125 g ai/ha, scale 0 to 100): 85 | Plant response rating, Kochia (kochia; [5]): 85 | Plant response rating, Kochia (kochia; [6]): 95

CCc1nc(C(C)(C)C)sc1C(=O)Nc1cccc(C(=O)NCC2CC2)n1 [Compound 215]
Plant response rating, Ducksalad (ducksalad; 125 g ai/ha): 0 | Plant response rating, Ducksalad (ducksalad; 250 g ai/ha): 0 | Plant response rating, Ducksalad (ducksalad; 500 g ai/ha): 20 | Plant response rating, Ducksalad (ducksalad; 750 g ai/ha): 20 | Plant response rating, Ducksalad (ducksalad; 1000 g ai/ha): 75 | Plant response rating, Sedge, Umbrella ([1]; 125 g ai/ha): 20 | Plant response rating, Sedge, Umbrella ([1]; 250 g ai/ha): 95 | Plant response rating, Sedge, Umbrella ([1]; 500 g ai/ha): 95 | Plant response rating, Sedge, Umbrella ([1]; 750 g ai/ha): 95 | Plant response rating, Sedge, Umbrella ([1]; 1000 g ai/ha): 100 | Plant response rating, Redstem (purple redstem; 125 g ai/ha): 0 | Plant response rating, Redstem (purple redstem; 250 g ai/ha): 100 | Plant response rating, Redstem (purple redstem; 500 g ai/ha): 100 | Plant response rating, Redstem (purple redstem; 750 g ai/ha): 100 | Plant response rating, Redstem (purple redstem; 1000 g ai/ha): 100 | Plant response rating, Rice, Transplanted ([2]; 125 g ai/ha): 0 | Plant response rating, Rice, Transplanted ([2]; 250 g ai/ha): 10 | Plant response rating, Rice, Transplanted ([2]; 500 g ai/ha): 20 | Plant response rating, Rice, Transplanted ([2]; 750 g ai/ha): 20 | Plant response rating, Rice, Transplanted ([2]; 1000 g ai/ha): 35 | Plant response rating, Rice, Water Seeded ([3]; 125 g ai/ha): 20 | Plant response rating, Rice, Water Seeded ([3]; 250 g ai/ha): 35 | Plant response rating, Rice, Water Seeded ([3]; 500 g ai/ha): 45 | Plant response rating, Rice, Water Seeded ([3]; 750 g ai/ha): 45 | Plant response rating, Rice, Water Seeded ([3]; 1000 g ai/ha): 45 | Plant response rating, Barnyardgrass (barnyardgrass; 125 g ai/ha): 0 | Plant response rating, Barnyardgrass (barnyardgrass; 250 g ai/ha): 0 | Plant response rating, Barnyardgrass (barnyardgrass; 500 g ai/ha): 0 | Plant response rating, Barnyardgrass (barnyardgrass; 750 g ai/ha): 30 | Plant response rating, Barnyardgrass (barnyardgrass; 1000 g ai/ha): 40 | Plant response rating, Watergrass, Late (late watergrass; 125 g ai/ha): 0 | Plant response rating, Watergrass, Late (late watergrass; 250 g ai/ha): 0 | Plant response rating, Watergrass, Late (late watergrass; 500 g ai/ha): 20 | Plant response rating, Watergrass, Late (late watergrass; 750 g ai/ha): 20 | Plant response rating, Watergrass, Late (late watergrass; 1000 g ai/ha): 20 | Plant response rating, Watergrass, Early (early watergrass; 125 g ai/ha): 0 | Plant response rating, Watergrass, Early (early watergrass; 250 g ai/ha): 0 | Plant response rating, Watergrass, Early (early watergrass; 500 g ai/ha): 20 | Plant response rating, Watergrass, Early (early watergrass; 750 g ai/ha): 25 | Plant response rating, Watergrass, Early (early watergrass; 1000 g ai/ha): 40 | Plant response rating, Junglerice (junglerice; 125 g ai/ha): 0 | Plant response rating, Junglerice (junglerice; 250 g ai/ha): 0 | Plant response rating, Junglerice (junglerice; 500 g ai/ha): 20 | Plant response rating, Junglerice (junglerice; 750 g ai/ha): 25 | Plant response rating, Junglerice (junglerice; 1000 g ai/ha): 25

CCc1nn(C(C)(C)CC)nc1C(=O)Nc1cccc(C(=O)N(C)C)c1 [Compound 372]
Plant response rating, Beggarticks, Bip. (bipinnate beggarticks; 62 g ai/ha, scale 0 to 100): 10 | Plant response rating, Beggarticks, Bip. (bipinnate beggarticks; 125 g ai/ha, scale 0 to 100): 40 | Plant response rating, Beggarticks, Bip. (bipinnate beggarticks; [7]): 50 | Plant response rating, Beggarticks, Bip. (bipinnate beggarticks; [8]): 60

Cc1nn(C(C)(C)C)nc1C(=O)Nc1cccc(C(=O)N(C)C)c1 [Compound 391]
Plant response rating, Beggarticks, Bip. (bipinnate beggarticks; 62 g ai/ha, scale 0 to 100): 40 | Plant response rating, Beggarticks, Bip. (bipinnate beggarticks; 125 g ai/ha, scale 0 to 100): 80 | Plant response rating, Beggarticks, Bip. (bipinnate beggarticks; [7]): 100 | Plant response rating, Beggarticks, Bip. (bipinnate beggarticks; [8]): 100
